Laboratory results reported in patent US9580444B2, “Polycyclic pyrazolinone derivative and herbicide comprising same as effective component thereof” (priority 2013, dated 2017).

What was measured:
Format in all cases: in vivo
[1] = tested on: Chenopodium album (common lambsquarters); test: Test Example-4: herbicidal effect by a foliage treatment after weeds are generated under upland field conditions; details: 500 g a.i/ha, foliage treatment after emergence, about 14 days after treatment, score 0-5
From the text: (§1) Using the formulation prepared according to the methods described above, the herbicidal effect of the bicyclic pyrazolinone derivative of the invention according to the methods shown in Test Examples below was examined. The herbicidal effect with respect to the test weeds or the phytotoxicity with respect to the test crops was examined according to the following criteria, and evaluated in six stage scores of 0 to 5. A vat having an area of 65 cm^2 and a depth of 2 cm was filled with upland soil, then, seeds of Amaranthus viridis (green amaranthus), Abutilon theophrasti (velvetleaf), Chenopodium album (common lambsquarters), […]. While watering was suitably performed on there, the seeds were grown for 14 days. A wettable powder or an emulsifiable concentrate of the compound of the present invention prepared according to Formulation Example was diluted, and a spray treatment was uniformly performed on the foliage portion of the plant so as to be a predetermined dosage in the amount of water of 4000 L per hectare. The herbicidal effect with respect to the test weeds and the phytotoxicity with respect to corn about 14 days after the treatment were evaluated according to the evaluation criteria in six stages of 0 to 5 described above.

[2] = tested on: Amaranthus viridis (green amaranthus); test: as above; details: 500 g a.i/ha, foliage treatment after emergence, about 14 days after treatment, score 0-5
From the text: as §1

[3] = tested on: Abutilon theophrasti (velvetleaf); test: as above; details: 500 g a.i/ha, foliage treatment after emergence, about 14 days after treatment, score 0-5
From the text: as §1

corn = test: Test Example-4: phytotoxicity by a foliage treatment after weeds are generated under upland field conditions; details: 500 g a.i/ha, foliage treatment after emergence, about 14 days after treatment, score 0-5
From the text: as §1

[4] = tested on: Eleocharis acicularis (needle spikerush); test: Test Example-1: herbicidal effect by a treatment before weeds are generated under submerged conditions; details: 500 g a.i/ha, pre-emergence treatment, about 15 days after treatment, score 0-5
Summary of the method: (§2)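 Weed seeds were sown in puddled paddy soil under flooding, then the diluted formulated compound was added to the water the same day at a predetermined dosage, and weed control was rated roughly 15 days afterwards in six stages (0–5).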

[5] = tested on: Echinochloa oryzicola (barnyard grass); test: as above; details: 500 g a.i/ha, pre-emergence treatment, about 15 days after treatment, score 0-5
Summary of the method: as §2

[6] = tested on: Scirpus juncoides (bulrush); test: as above; details: 500 g a.i/ha, pre-emergence treatment, about 15 days after treatment, score 0-5
Summary of the method: as §2

[7] = tested on: Monochoria vaginalis (monochoria); test: as above; details: 500 g a.i/ha, pre-emergence treatment, about 15 days after treatment, score 0-5
Summary of the method: as §2

[8] = tested on: other annual broad leaf weeds (Lindernia procumbens, Rotala indica, Elatine triandra); test: as above; details: 500 g a.i/ha, pre-emergence treatment, about 15 days after treatment, score 0-5
Summary of the method: as §2

[9] = tested on: Cyperus difformis (smallflower umbrella plant); test: as above; details: 500 g a.i/ha, pre-emergence treatment, about 15 days after treatment, score 0-5
Summary of the method: as §2

SMILES: CC1(COc2cc(-c3c(Cl)n4n(c3=O)CCCC4)c(F)cc2Cl)CC(c2ccccc2)=NO1 (stereo not drawn) [Example 4-1]
- Herbicidal effect Chenopodium album [1]: 5 (Herbicidal effect/phytotoxicity was 90% or greater)
- Herbicidal effect Amaranthus viridis [2]: 5 (Herbicidal effect/phytotoxicity was 90% or greater)
- Herbicidal effect Abutilon theophrast [3]: 5 (Herbicidal effect/phytotoxicity was 90% or greater)
- Phytotoxicity Corn (corn): 0 (Herbicidal effect/phytotoxicity was 0% to 10%)

SMILES: CCCOC(=CC(=O)OCC)COc1cc(-c2c(Cl)n3n(c2=O)CCCC3)c(F)cc1Cl (mixture of isomers) [Example 2-20]
- Herbicidal effect Chenopodium album [1]: 5 (Herbicidal effect/phytotoxicity was 90% or greater)
- Herbicidal effect Amaranthus viridis [2]: 5 (Herbicidal effect/phytotoxicity was 90% or greater)
- Herbicidal effect Abutilon theophrast [3]: 5 (Herbicidal effect/phytotoxicity was 90% or greater)
- Phytotoxicity Corn (corn): 0 (Herbicidal effect/phytotoxicity was 0% to 10%)

SMILES: C=CCOc1cc(C)ccc1Oc1cc(-c2c(Cl)n3n(c2=O)CCCC3)c(F)cc1Cl [Example 3-42]
- Herbicidal effect Chenopodium album [1]: 5 (Herbicidal effect/phytotoxicity was 90% or greater)
- Herbicidal effect Amaranthus viridis [2]: 5 (Herbicidal effect/phytotoxicity was 90% or greater)
- Herbicidal effect Abutilon theophrast [3]: 5 (Herbicidal effect/phytotoxicity was 90% or greater)
- Phytotoxicity Corn (corn): 0 (Herbicidal effect/phytotoxicity was 0% to 10%)

SMILES: C=CCOC(=O)C=C(COc1ccccc1Oc1cc(-c2c(Cl)n3n(c2=O)CCCC3)c(F)cc1Cl)OC [Example 3-24]
- Herbicidal effect Chenopodium album [1]: 5 (Herbicidal effect/phytotoxicity was 90% or greater)
- Herbicidal effect Amaranthus viridis [2]: 5 (Herbicidal effect/phytotoxicity was 90% or greater)
- Herbicidal effect Abutilon theophrast [3]: 5 (Herbicidal effect/phytotoxicity was 90% or greater)
- Phytotoxicity Corn (corn): 0 (Herbicidal effect/phytotoxicity was 0% to 10%)

SMILES: C=CCOC(=O)C=C(COc1cc(-c2c(Cl)n3n(c2=O)CCCC3)c(F)cc1Cl)OC (mixture of isomers) [Example 2-8]
- Herbicidal effect Chenopodium album [1]: 5 (Herbicidal effect/phytotoxicity was 90% or greater)
- Herbicidal effect Amaranthus viridis [2]: 5 (Herbicidal effect/phytotoxicity was 90% or greater)
- Herbicidal effect Abutilon theophrast [3]: 5 (Herbicidal effect/phytotoxicity was 90% or greater)
- Phytotoxicity Corn (corn): 2 (Herbicidal effect/phytotoxicity was 30% to 50%)

SMILES: C=CCOc1cccc(Oc2cc(-c3c(Cl)n4n(c3=O)CCCC4)c(F)cc2Cl)c1 [Example 3-28]
- Herbicidal effect Chenopodium album [1]: 5 (Herbicidal effect/phytotoxicity was 90% or greater)
- Herbicidal effect Amaranthus viridis [2]: 5 (Herbicidal effect/phytotoxicity was 90% or greater)
- Herbicidal effect Abutilon theophrast [3]: 5 (Herbicidal effect/phytotoxicity was 90% or greater)
- Phytotoxicity Corn (corn): 0 (Herbicidal effect/phytotoxicity was 0% to 10%)

SMILES: CCOC(=O)COc1cc(-c2c(Cl)n3n(c2=O)CCCC3)c(F)cc1Cl [Example 1-163]
- Herbicidal effect Chenopodium album [1]: 5 (Herbicidal effect/phytotoxicity was 90% or greater)
- Herbicidal effect Amaranthus viridis [2]: 5 (Herbicidal effect/phytotoxicity was 90% or greater)
- Herbicidal effect Abutilon theophrast [3]: 5 (Herbicidal effect/phytotoxicity was 90% or greater)
- Phytotoxicity Corn (corn): 0 (Herbicidal effect/phytotoxicity was 0% to 10%)

SMILES: COc1ccccc1Oc1cc(-c2c(Cl)n3n(c2=O)CCCC3)c(F)cc1Cl [Example 3-2]
- Herbicidal effect Chenopodium album [1]: 5 (Herbicidal effect/phytotoxicity was 90% or greater)
- Herbicidal effect Amaranthus viridis [2]: 5 (Herbicidal effect/phytotoxicity was 90% or greater)
- Herbicidal effect Abutilon theophrast [3]: 5 (Herbicidal effect/phytotoxicity was 90% or greater)
- Phytotoxicity Corn (corn): 2 (Herbicidal effect/phytotoxicity was 30% to 50%)

SMILES: CC#CCOc1ccccc1Oc1cc(-c2c(Cl)n3n(c2=O)CCCC3)c(F)cc1Cl [Example 3-30]
- Herbicidal effect Chenopodium album [1]: 5 (Herbicidal effect/phytotoxicity was 90% or greater)
- Herbicidal effect Amaranthus viridis [2]: 5 (Herbicidal effect/phytotoxicity was 90% or greater)
- Herbicidal effect Abutilon theophrast [3]: 5 (Herbicidal effect/phytotoxicity was 90% or greater)
- Phytotoxicity Corn (corn): 1 (Herbicidal effect/phytotoxicity was 10% to 30%)

SMILES: COc1cc(-c2c(Cl)n3n(c2=O)CCCCC3)c(F)cc1Cl [Example 1-141]
- Herbicidal effect Chenopodium album [1]: 5 (Herbicidal effect/phytotoxicity was 90% or greater)
- Herbicidal effect Amaranthus viridis [2]: 5 (Herbicidal effect/phytotoxicity was 90% or greater)
- Herbicidal effect Abutilon theophrast [3]: 5 (Herbicidal effect/phytotoxicity was 90% or greater)
- Phytotoxicity Corn (corn): 0 (Herbicidal effect/phytotoxicity was 0% to 10%)

SMILES: COc1cc(-c2c(Cl)n3n(c2=O)CCCC3)ccc1Cl [Example 1-44]
- Herbicidal effect Chenopodium album [1]: 5 (Herbicidal effect/phytotoxicity was 90% or greater)
- Herbicidal effect Amaranthus viridis [2]: 5 (Herbicidal effect/phytotoxicity was 90% or greater)
- Herbicidal effect Abutilon theophrast [3]: 5 (Herbicidal effect/phytotoxicity was 90% or greater)
- Phytotoxicity Corn (corn): 0 (Herbicidal effect/phytotoxicity was 0% to 10%)

SMILES: C=CCOc1ccccc1Oc1cc(-c2c(Cl)n3n(c2=O)CCCC3)c(F)cc1Cl [Example 3-21]
- Herbicidal effect Chenopodium album [1]: 5 (Herbicidal effect/phytotoxicity was 90% or greater)
- Herbicidal effect Amaranthus viridis [2]: 5 (Herbicidal effect/phytotoxicity was 90% or greater)
- Herbicidal effect Abutilon theophrast [3]: 5 (Herbicidal effect/phytotoxicity was 90% or greater)
- Phytotoxicity Corn (corn): 1 (Herbicidal effect/phytotoxicity was 10% to 30%)

SMILES: CCOC(=O)COc1ccccc1Oc1cc(-c2c(Cl)n3n(c2=O)CCCC3)c(F)cc1Cl [Example 3-17]
- Herbicidal effect Chenopodium album [1]: 5 (Herbicidal effect/phytotoxicity was 90% or greater)
- Herbicidal effect Amaranthus viridis [2]: 5 (Herbicidal effect/phytotoxicity was 90% or greater)
- Herbicidal effect Abutilon theophrast [3]: 5 (Herbicidal effect/phytotoxicity was 90% or greater)
- Phytotoxicity Corn (corn): 0 (Herbicidal effect/phytotoxicity was 0% to 10%)

SMILES: CC(C)Oc1ccccc1Oc1cc(-c2c(Cl)n3n(c2=O)CCCC3)c(F)cc1Cl [Example 3-8]
- Herbicidal effect Chenopodium album [1]: 5 (Herbicidal effect/phytotoxicity was 90% or greater)
- Herbicidal effect Amaranthus viridis [2]: 5 (Herbicidal effect/phytotoxicity was 90% or greater)
- Herbicidal effect Abutilon theophrast [3]: 5 (Herbicidal effect/phytotoxicity was 90% or greater)
- Phytotoxicity Corn (corn): 0 (Herbicidal effect/phytotoxicity was 0% to 10%)

SMILES: CC1(COc2cc(-c3c(Cl)n4n(c3=O)CCCC4)c(F)cc2Cl)CC(c2ccc(F)cc2Cl)=NO1 (stereo not drawn) [Example 4-11]
- Herbicidal effect Chenopodium album [1]: 5 (Herbicidal effect/phytotoxicity was 90% or greater)
- Herbicidal effect Amaranthus viridis [2]: 5 (Herbicidal effect/phytotoxicity was 90% or greater)
- Herbicidal effect Abutilon theophrast [3]: 5 (Herbicidal effect/phytotoxicity was 90% or greater)
- Phytotoxicity Corn (corn): 2 (Herbicidal effect/phytotoxicity was 30% to 50%)

SMILES: CC1(COc2cc(-c3c(Cl)n4n(c3=O)CCCC4)c(F)cc2Cl)CC(c2ccccc2F)=NO1 (stereo not drawn) [Compound 4-3]
- Herbicidal effect Eleocharis acicularis [4]: 5 (Herbicidal effect/phytotoxicity was 90% or greater)
- Herbicidal effect Echinochloa oryzicola [5]: 5 (Herbicidal effect/phytotoxicity was 90% or greater)
- Herbicidal effect Scirpus juncoides [6]: 5 (Herbicidal effect/phytotoxicity was 90% or greater)
- Herbicidal effect Monochoria vaginalis [7]: 5 (Herbicidal effect/phytotoxicity was 90% or greater)
- Herbicidal effect Broadleaf weed [8]: 5 (Herbicidal effect/phytotoxicity was 90% or greater)
- Herbicidal effect Cyperus difformis [9]: 5 (Herbicidal effect/phytotoxicity was 90% or greater)

SMILES: O=c1c(-c2ccc(F)cc2F)c(Cl)n2n1CCCC2 [Example 1-75]
- Herbicidal effect Eleocharis acicularis [4]: 5 (Herbicidal effect/phytotoxicity was 90% or greater)
- Herbicidal effect Echinochloa oryzicola [5]: 5 (Herbicidal effect/phytotoxicity was 90% or greater)
- Herbicidal effect Scirpus juncoides [6]: 5 (Herbicidal effect/phytotoxicity was 90% or greater)
- Herbicidal effect Monochoria vaginalis [7]: 5 (Herbicidal effect/phytotoxicity was 90% or greater)
- Herbicidal effect Broadleaf weed [8]: 5 (Herbicidal effect/phytotoxicity was 90% or greater)
- Herbicidal effect Cyperus difformis [9]: 5 (Herbicidal effect/phytotoxicity was 90% or greater)
